Experiments:
Experiment in all cases: relative viability (nuclei count vs DMSO), 5 days (fraction); higher = more cells survive
[1] = compound: C=CCNC1=C2C[C@@H](C)C[C@H](OC)[C@H](O)[C@@H](C)/C=C(\C)[C@H](OC(N)=O)[C@@H](OC)/C=C\C=C(/C)C(=O)NC(=CC1=O)C2=O [17-AAG] + CC(=O)c1c(C)c2cnc(Nc3ccc(N4CCNCC4)cn3)nc2n(C2CCCC2)c1=O [Palbociclib] (partner 0.5 µM)
Summary of the method: (§1)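 Each reported value is a median over duplicate plates. It expresses relative viability: treated-well nuclei count divided by vehicle-well nuclei count. Lung cancer cell lines in 1536-well plates were dosed by pin tool a day after seeding, alone with one drug or with a fixed anchor-drug dose plus five library-drug doses (not always all listed) in √10 steps, and nuclei were counted after 5 days.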

[2] = compound: C=CCNC1=C2C[C@@H](C)C[C@H](OC)[C@H](O)[C@@H](C)/C=C(\C)[C@H](OC(N)=O)[C@@H](OC)/C=C\C=C(/C)C(=O)NC(=CC1=O)C2=O [17-AAG] + CS(=O)(=O)N1CCN(Cc2cc3nc(-c4cccc5[nH]ncc45)nc(N4CCOCC4)c3s2)CC1 [Pictilisib] (partner 1 µM)
Summary of the method: as §1

[3] = compound: C=CCNC1=C2C[C@@H](C)C[C@H](OC)[C@H](O)[C@@H](C)/C=C(\C)[C@H](OC(N)=O)[C@@H](OC)/C=C\C=C(/C)C(=O)NC(=CC1=O)C2=O [17-AAG] + N=C(N)NC(=N)NCCc1ccccc1 [Phenformin] (partner 250 µM)
Summary of the method: as §1

[4] = compound: C=CCNC1=C2C[C@@H](C)C[C@H](OC)[C@H](O)[C@@H](C)/C=C(\C)[C@H](OC(N)=O)[C@@H](OC)/C=C\C=C(/C)C(=O)NC(=CC1=O)C2=O [17-AAG] + Nc1ncn([C@H]2C[C@H](O)[C@@H](CO)O2)c(=O)n1 [Decitabine] (partner 2 µM)
Summary of the method: as §1

Cell Line | relative viability ([1]; first compound 0.00128 µM) | relative viability ([1]; first compound 0.004048 µM) | relative viability ([1]; first compound 0.0128 µM) | relative viability ([1]; first compound 0.04048 µM) | relative viability ([1]; first compound 0.128 µM) | relative viability ([2]; first compound 0.00128 µM) | relative viability ([2]; first compound 0.004048 µM) | relative viability ([2]; first compound 0.0128 µM) | relative viability ([2]; first compound 0.04048 µM) | relative viability ([2]; first compound 0.128 µM) | relative viability ([3]; first compound 0.00128 µM) | relative viability ([3]; first compound 0.004048 µM) | relative viability ([3]; first compound 0.0128 µM) | relative viability ([3]; first compound 0.04048 µM) | relative viability ([3]; first compound 0.128 µM) | relative viability ([4]; first compound 0.00128 µM) | relative viability ([4]; first compound 0.004048 µM) | relative viability ([4]; first compound 0.0128 µM) | relative viability ([4]; first compound 0.04048 µM) | relative viability ([4]; first compound 0.128 µM)
NCI-H1651 | 0.496 | 0.563 | 0.511 | 0.451 | 0.302 | 0.568 | 0.54 | 0.363 | 0.148 | 0.131 | 0.335 | 0.548 | 0.242 | 0.151 | 0.107 | 0.389 | 0.68 | 0.481 | 0.362 | 0.179
NCI-H1792 | 0.592 | 0.635 | 0.542 | 0.459 | 0.278 | 0.326 | 0.308 | 0.253 | 0.171 | 0.143 | 0.338 | 0.216 | 0.066 | 0.0797 | 0.0405 | 0.444 | 0.345 | 0.194 | 0.12 | 0.0575
NCI-H2023 | 0.374 | 0.195 | 0.102 | 0.0665 | 0.0605 | 0.292 | 0.173 | 0.0917 | 0.0989 | 0.0852 | 0.416 | 0.226 | 0.0687 | 0.0792 | 0.0691 | 0.178 | 0.168 | 0.0829 | 0.0643 | 0.0587
COR-L 105 | 0.431 | 0.389 | 0.406 | 0.356 | 0.384 | 0.394 | 0.434 | 0.435 | 0.324 | 0.298 | 0.55 | 0.453 | 0.463 | 0.354 | 0.299 | 0.655 | 0.701 | 0.699 | 0.484 | 0.504
NCI-H1734 | 0.366 | 0.402 | 0.369 | 0.303 | 0.175 | 0.447 | 0.468 | 0.361 | 0.205 | 0.151 | 0.371 | 0.368 | 0.305 | 0.142 | 0.118 | 0.502 | 0.536 | 0.46 | 0.242 | 0.142
NCI-H322M | 0.463 | 0.511 | 0.468 | 0.425 | 0.366 | 0.553 | 0.564 | 0.523 | 0.259 | 0.279 | 0.77 | 0.808 | 0.311 | 0.28 | 0.303 | 0.811 | 0.706 | 0.641 | 0.475 | 0.442
HCC-78 | 0.47 | 0.464 | 0.475 | 0.442 | 0.424 | 0.238 |  | 0.333 | 0.24 | 0.212 | 0.644 | 0.818 | 0.676 | 0.553 | 0.351 | 0.511 | 0.841 | 0.695 | 0.465 | 0.369
NCI-H2085 | 0.51 | 0.472 | 0.479 | 0.443 | 0.337 | 0.474 | 0.416 | 0.448 | 0.475 | 0.529 | 0.688 | 0.734 | 0.68 | 0.595 | 0.406 | 0.498 | 0.512 | 0.588 | 0.57 | 0.495
